This note sets out measurements from EP1561465A2, “Methods of use of fluoroquinolone compounds against bacteria” (LG Life Sciences, Ltd., priority 1999, dated 2001).

In brackets after ≈: the same amount, converted by molar mass. Read-outs that look alike come from different tables or passages of the source.

In one experiment the test system is Yersinia enterocolitica. Kind of experiment: MIC by agar dilution (NCCLS M7-A4), 288 enteropathogenic isolates, eight quinolones. The experiment is classed as cell-based. Particulars: Yersinia enterocolitica (n = 22).
A further experiment relates to Salmonella spp. Kind of experiment: MIC by agar dilution (NCCLS M7-A4), 288 enteropathogenic isolates, gemifloxacin and 15 other antimicrobials. The experiment is classed as cell-based. (In agar dilution, organisms are placed on agar that contains the substance at set levels.)

Usually MIC50 stands for an inhibitory concentration at the 50% level, which refers to growth in some studies and to a panel of isolates in others. A word on the MIC90: it is the lowest concentration that inhibits either 90% of growth or 90% of the strains tested, depending on the study. A higher MIC90 goes with lower susceptibility. On to `Cc1c(F)c(N2CCNC(C)C2)cc2c1c(=O)c(C(=O)O)cn2C1CC1` (stereo not shown) [Grepafloxacin, grepafloxacin], for which, in the experiment with Yersinia enterocolitica, the “% Susceptible” value came out at 100%. The same compound showed an MIC50 against Yersinia enterocolitica of 0.03 µg/mL (≈ 0.0835 µM). Also, the MIC90 with Yersinia enterocolitica is 0.03 µg/mL (≈ 0.0835 µM). The “MIC Range” value in the experiment on Yersinia enterocolitica is at most 0.015 to 0.25 µg/mL. Further, the MIC in the experiment with Salmonella spp. (S. hadar(2), isolates with MICs for ciprofloxacin ≥[…], read-out: MIC) came out at 1 mg/L (≈ 2.78 µM); in the experiment on Salmonella spp. (S. newport(1), isolate with MIC for ciprofloxacin ≥[…], read-out: MIC), 1 mg/L (≈ 2.78 µM); in the experiment on Salmonella spp. (S. virchow(2), isolates with MICs for ciprofloxacin ≥[…], read-out: MIC) it was 0.25 mg/L (≈ 0.696 µM); in the experiment on Salmonella spp. (Salmonella, S. tshiongwe(1), isolate with MIC for ciprofloxacin ≥[…], read-out: MIC), 2 mg/L (≈ 5.56 µM); in the experiment on Salmonella spp. (Salmonella, read-out: MIC (mg/L) 50%, Salmonella spp. N= 106) it was 0.06 mg/L (≈ 0.167 µM); in the experiment with Salmonella spp. (Salmonella, read-out: MIC (mg/L) 90%, Salmonella spp. N= 106) it was 0.25 mg/L (≈ 0.696 µM). In the experiment on Salmonella spp. (Salmonella, the non-susceptible Salmonella spp. isolate(s) (1% of 106), read-out: MIC), the MIC is 2 mg/L (≈ 5.56 µM). Besides, the “Rates of non-susceptible microorganisms” value in the experiment with Salmonella spp. (Salmonella spp.) is 1%. In the experiment on Salmonella spp. (Salmonella spp. N= 106), the “MIC (mg/L) Range” value was in the range of 0.03 to 2 mg/L.
